{
  "source": "paper PMC10337138",
  "about": "(Acta Neuropathologica Communications, 2023)",
  "conditions_in_all_cases": "1 mM ATP; inhibitor",
  "key": {"MAP3K13": {"biological_target": "MAP3K13 (Homo sapiens, UniProt O43283)", "description": "(§1) Kinase selectivity panel Kinome profiling was conducted by AssayQuant Technologies (Marlboro, MA) using Sox chromophore technology and Sox-based peptide substrates developed for human kinases in a 384-well format. Compounds were tested at 1 µM in the presence of 1 mM ATP."}, "CSNK1E/CK1E": {"biological_target": "CSNK1E/CK1E (Homo sapiens, UniProt P49674)", "description": "as §1"}, "PAK4": {"biological_target": "PAK4 (Homo sapiens, UniProt O96013)", "description": "as §1"}, "CDK18": {"biological_target": "CDK18 (Homo sapiens, UniProt Q07002)", "description": "as §1"}, "PRKD2": {"biological_target": "PRKD2 (Homo sapiens, UniProt Q9BZL6)", "description": "as §1"}, "MAP3K9": {"biological_target": "MAP3K9 (Homo sapiens, UniProt P80192)", "description": "as §1"}, "SGK2": {"biological_target": "SGK2 (Homo sapiens, UniProt Q9HBY8)", "sequence (Q9HBY8 whole entry)": "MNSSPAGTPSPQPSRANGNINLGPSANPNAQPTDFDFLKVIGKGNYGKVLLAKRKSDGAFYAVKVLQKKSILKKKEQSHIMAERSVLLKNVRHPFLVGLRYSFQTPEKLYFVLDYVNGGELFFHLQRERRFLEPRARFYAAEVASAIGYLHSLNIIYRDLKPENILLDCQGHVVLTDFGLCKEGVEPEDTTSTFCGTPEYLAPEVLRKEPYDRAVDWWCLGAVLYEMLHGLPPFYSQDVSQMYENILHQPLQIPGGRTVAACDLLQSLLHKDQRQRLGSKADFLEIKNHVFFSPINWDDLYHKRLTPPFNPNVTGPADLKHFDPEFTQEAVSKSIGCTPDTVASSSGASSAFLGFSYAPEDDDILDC", "description": "as §1"}, "STK25/YSK1": {"biological_target": "STK25/YSK1 (Homo sapiens, UniProt O00506)", "description": "as §1"}, "TAOK3": {"biological_target": "TAOK3 (Homo sapiens, UniProt Q9H2K8)", "description": "as §1"}, "CSNK1D/CK1D": {"biological_target": "CSNK1D/CK1D (Homo sapiens, UniProt P48730)", "description": "as §1"}, "PKN1": {"biological_target": "PKN1 (Homo sapiens, UniProt Q16512)", "description": "as §1"}, "PRKG2": {"biological_target": "PRKG2 (Homo sapiens, UniProt Q13237)", "sequence (Q13237 whole entry)": "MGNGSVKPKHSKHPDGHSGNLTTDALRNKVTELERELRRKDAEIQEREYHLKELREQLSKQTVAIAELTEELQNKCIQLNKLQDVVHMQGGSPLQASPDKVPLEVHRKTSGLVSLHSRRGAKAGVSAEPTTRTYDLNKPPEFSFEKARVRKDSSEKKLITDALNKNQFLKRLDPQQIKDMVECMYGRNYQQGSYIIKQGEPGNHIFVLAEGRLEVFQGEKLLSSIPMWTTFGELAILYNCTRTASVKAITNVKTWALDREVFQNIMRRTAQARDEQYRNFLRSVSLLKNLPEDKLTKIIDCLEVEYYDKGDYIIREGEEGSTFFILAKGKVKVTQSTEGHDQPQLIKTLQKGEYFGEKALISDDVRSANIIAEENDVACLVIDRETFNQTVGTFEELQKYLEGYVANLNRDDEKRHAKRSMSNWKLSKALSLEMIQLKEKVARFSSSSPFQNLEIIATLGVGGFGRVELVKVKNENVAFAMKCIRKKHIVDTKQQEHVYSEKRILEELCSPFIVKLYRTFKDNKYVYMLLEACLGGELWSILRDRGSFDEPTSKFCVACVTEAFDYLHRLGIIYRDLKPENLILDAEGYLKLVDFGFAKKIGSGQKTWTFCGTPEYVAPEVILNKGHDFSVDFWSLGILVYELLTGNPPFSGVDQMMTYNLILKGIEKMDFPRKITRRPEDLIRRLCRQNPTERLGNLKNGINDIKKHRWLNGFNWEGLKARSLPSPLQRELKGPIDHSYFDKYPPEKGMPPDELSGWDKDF", "description": "as §1"}, "CSF1R/FMS": {"biological_target": "CSF1R/FMS (Homo sapiens, UniProt P07333)", "description": "as §1"}, "PRKCD/CPKCD": {"biological_target": "PRKCD/CPKCD (Homo sapiens, UniProt Q05655)", "description": "as §1"}, "AURKA/AURA": {"biological_target": "AURKA/AURA (Homo sapiens, UniProt O14965)", "description": "as §1"}, "MARK4": {"biological_target": "MARK4 (Homo sapiens, UniProt Q96L34)", "description": "as §1"}, "RPS6KA3/RSK2": {"biological_target": "RPS6KA3/RSK2 (Homo sapiens, UniProt P51812)", "description": "as §1"}, "TOPK": {"biological_target": "T1, TOPK (Homo sapiens, UniProt Q96KB5)", "T1 construct": "gene PBK", "description": "as §1"}, "SGK1": {"biological_target": "SGK1 (Homo sapiens, UniProt O00141)", "sequence (O00141 whole entry)": "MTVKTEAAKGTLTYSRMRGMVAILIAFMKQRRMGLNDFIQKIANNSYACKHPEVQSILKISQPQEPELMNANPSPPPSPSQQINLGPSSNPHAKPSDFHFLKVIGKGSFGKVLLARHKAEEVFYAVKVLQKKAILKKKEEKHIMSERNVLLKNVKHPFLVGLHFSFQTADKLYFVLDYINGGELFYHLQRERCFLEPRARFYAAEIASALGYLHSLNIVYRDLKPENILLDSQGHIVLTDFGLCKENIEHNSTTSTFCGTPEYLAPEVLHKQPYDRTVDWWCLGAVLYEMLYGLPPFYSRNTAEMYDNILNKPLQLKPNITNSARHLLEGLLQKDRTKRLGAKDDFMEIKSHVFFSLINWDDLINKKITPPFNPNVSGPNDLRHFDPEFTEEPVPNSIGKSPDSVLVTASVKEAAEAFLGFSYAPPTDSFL", "description": "as §1"}, "BMP2K/BIKE": {"biological_target": "BMP2K/BIKE (Homo sapiens, UniProt Q9NSY1)", "description": "as §1"}, "SGK3": {"biological_target": "SGK3 (Homo sapiens, UniProt Q96BR1)", "description": "as §1"}, "EPHA3": {"biological_target": "EPHA3 (Homo sapiens, UniProt P29320)", "sequence (P29320 whole entry)": "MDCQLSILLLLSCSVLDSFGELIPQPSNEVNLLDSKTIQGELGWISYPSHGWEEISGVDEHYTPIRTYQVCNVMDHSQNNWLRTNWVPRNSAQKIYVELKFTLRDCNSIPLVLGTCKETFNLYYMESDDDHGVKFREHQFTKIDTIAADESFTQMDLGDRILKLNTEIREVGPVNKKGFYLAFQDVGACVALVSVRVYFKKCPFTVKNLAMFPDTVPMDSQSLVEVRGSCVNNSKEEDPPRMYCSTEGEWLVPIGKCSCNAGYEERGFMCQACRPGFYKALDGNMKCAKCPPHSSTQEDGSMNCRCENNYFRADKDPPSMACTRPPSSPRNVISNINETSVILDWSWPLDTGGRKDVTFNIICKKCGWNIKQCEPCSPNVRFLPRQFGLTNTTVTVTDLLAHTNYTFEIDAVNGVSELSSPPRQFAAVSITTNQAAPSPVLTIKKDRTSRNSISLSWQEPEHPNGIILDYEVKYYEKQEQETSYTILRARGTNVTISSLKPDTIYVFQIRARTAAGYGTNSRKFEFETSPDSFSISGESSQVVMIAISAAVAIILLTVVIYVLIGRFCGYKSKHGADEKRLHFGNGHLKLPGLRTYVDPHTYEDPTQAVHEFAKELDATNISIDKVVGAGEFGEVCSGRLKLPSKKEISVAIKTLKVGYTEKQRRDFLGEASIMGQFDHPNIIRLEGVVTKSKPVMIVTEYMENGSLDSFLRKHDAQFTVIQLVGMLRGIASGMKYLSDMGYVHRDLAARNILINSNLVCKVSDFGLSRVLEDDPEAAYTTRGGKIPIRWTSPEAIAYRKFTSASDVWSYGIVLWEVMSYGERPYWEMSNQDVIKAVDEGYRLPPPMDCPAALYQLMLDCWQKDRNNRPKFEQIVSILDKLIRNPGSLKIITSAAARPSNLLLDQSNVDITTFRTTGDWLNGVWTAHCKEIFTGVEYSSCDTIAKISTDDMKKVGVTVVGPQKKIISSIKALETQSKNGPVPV", "description": "as §1"}, "MNK2": {"biological_target": "T2, MNK2 (Homo sapiens, UniProt Q9HBH9)", "T2 construct": "gene MKNK2", "description": "as §1"}, "TYK2(JH1)": {"biological_target": "TYK2(JH1) (Homo sapiens, UniProt P29597)", "sequence (P29597 whole entry)": "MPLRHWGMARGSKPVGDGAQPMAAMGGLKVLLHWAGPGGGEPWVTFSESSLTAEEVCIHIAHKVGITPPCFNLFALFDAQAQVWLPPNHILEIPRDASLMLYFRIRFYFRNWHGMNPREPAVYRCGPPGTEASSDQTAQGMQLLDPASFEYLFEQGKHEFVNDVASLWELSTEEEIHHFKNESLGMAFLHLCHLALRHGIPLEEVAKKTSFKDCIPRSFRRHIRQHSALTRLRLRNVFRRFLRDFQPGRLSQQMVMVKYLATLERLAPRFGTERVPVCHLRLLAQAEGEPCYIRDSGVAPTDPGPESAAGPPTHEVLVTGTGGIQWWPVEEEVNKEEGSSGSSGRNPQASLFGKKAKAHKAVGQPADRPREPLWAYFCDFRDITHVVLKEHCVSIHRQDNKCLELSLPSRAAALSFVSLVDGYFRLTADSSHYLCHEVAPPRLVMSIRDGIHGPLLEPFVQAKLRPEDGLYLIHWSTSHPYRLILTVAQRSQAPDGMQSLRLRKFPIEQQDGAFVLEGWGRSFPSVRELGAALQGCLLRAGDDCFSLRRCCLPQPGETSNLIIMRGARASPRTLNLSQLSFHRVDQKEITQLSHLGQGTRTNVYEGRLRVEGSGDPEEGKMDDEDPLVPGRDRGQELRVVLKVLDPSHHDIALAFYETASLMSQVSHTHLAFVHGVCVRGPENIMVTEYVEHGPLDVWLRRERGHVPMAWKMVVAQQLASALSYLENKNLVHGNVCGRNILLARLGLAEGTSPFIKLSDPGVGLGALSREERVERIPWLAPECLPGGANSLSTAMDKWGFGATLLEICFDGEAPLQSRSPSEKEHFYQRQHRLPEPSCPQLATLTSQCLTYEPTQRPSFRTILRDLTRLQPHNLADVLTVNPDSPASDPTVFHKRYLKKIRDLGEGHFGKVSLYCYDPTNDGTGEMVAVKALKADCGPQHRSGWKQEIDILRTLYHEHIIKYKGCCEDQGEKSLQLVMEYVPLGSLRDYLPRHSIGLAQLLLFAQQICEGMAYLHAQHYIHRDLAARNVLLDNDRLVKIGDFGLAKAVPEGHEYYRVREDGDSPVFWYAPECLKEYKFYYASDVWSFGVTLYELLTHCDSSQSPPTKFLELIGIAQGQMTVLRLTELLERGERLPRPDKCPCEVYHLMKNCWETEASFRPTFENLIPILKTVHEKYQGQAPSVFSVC", "description": "as §1"}, "KDR": {"biological_target": "KDR (Homo sapiens, UniProt P35968)", "description": "as §1"}, "CAMK2A": {"biological_target": "CAMK2A (Homo sapiens, UniProt Q9UQM7)", "description": "as §1"}, "CAMK2G": {"biological_target": "CAMK2G (Homo sapiens, UniProt Q13555)", "description": "as §1"}, "RPS6KA5/MSK1": {"biological_target": "RPS6KA5/MSK1 (Homo sapiens, UniProt O75582)", "description": "as §1"}, "PRKACG": {"biological_target": "PRKACG (Homo sapiens, UniProt P22612)", "sequence (P22612 whole entry)": "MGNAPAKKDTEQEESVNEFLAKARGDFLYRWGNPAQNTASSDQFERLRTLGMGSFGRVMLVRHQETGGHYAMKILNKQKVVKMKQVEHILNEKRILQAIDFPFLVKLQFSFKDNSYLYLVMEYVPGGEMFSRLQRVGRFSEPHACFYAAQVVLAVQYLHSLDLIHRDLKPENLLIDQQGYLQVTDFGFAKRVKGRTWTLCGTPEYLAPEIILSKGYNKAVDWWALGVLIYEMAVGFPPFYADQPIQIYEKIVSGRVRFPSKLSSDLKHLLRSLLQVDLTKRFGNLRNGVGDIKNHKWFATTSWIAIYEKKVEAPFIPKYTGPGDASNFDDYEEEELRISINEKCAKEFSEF", "description": "as §1"}, "IRAK1": {"biological_target": "IRAK1 (Homo sapiens, UniProt P51617)", "description": "as §1"}, "RIPK2": {"biological_target": "RIPK2 (Homo sapiens, UniProt O43353)", "description": "as §1"}, "MYLK/MLCK": {"biological_target": "MYLK/MLCK (Homo sapiens, UniProt Q15746)", "description": "as §1"}, "CSNK1G2/CK1G2": {"biological_target": "CSNK1G2/CK1G2 (Homo sapiens, UniProt P78368)", "sequence (P78368 whole entry)": "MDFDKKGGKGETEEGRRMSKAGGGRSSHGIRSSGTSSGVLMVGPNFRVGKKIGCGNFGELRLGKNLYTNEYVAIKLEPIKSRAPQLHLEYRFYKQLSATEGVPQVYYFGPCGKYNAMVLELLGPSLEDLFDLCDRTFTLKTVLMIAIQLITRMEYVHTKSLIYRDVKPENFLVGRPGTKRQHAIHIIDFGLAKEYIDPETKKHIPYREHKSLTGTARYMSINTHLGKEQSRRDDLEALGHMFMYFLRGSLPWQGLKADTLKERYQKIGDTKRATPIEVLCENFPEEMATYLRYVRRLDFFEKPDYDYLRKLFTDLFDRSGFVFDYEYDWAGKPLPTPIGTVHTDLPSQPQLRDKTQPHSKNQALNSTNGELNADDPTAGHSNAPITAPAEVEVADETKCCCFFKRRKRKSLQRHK", "description": "as §1"}, "LYNA": {"biological_target": "T3, LYNA (Homo sapiens, UniProt P07948)", "T3 construct": "gene LYN", "description": "as §1"}, "CAMK4": {"biological_target": "CAMK4 (Homo sapiens, UniProt Q16566)", "sequence (Q16566 whole entry)": "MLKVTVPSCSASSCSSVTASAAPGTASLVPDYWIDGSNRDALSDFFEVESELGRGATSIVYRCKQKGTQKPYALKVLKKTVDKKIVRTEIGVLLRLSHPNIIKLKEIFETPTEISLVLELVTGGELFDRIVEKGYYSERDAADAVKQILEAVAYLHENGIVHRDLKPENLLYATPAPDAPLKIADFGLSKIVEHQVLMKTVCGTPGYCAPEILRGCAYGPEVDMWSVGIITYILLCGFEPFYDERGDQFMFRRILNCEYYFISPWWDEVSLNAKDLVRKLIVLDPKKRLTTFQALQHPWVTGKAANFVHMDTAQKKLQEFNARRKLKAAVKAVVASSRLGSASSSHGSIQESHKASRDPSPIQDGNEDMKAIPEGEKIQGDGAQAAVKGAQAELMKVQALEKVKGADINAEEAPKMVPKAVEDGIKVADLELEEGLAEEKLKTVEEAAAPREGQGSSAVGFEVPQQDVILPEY", "description": "as §1"}, "DYRK1A": {"biological_target": "DYRK1A (Homo sapiens, UniProt Q13627)", "description": "as §1"}, "HIPK1": {"biological_target": "HIPK1 (Homo sapiens, UniProt Q86Z02)", "description": "as §1"}, "MARK3": {"biological_target": "MARK3 (Homo sapiens, UniProt P27448)", "description": "as §1"}},
  "data": [
    {"smiles": "C=CC(=O)N1CCC[C@@H](n2nc(-c3ccc(Oc4ccccc4)cc3)c3c(N)ncnc32)C1", "note": "[Ibrutinib]", "values": [
      {"measurement": "1 µM GBD00276 (ibrutinib), % inhibition", "setting": "MAP3K13", "result": -13.52, "unit": "%"},
      {"measurement": "1 µM GBD00276 (ibrutinib), % inhibition", "setting": "CSNK1E/CK1E", "result": 22.68, "unit": "%"},
      {"measurement": "1 µM GBD00276 (ibrutinib), % inhibition", "setting": "PAK4", "result": 3.525, "unit": "%"},
      {"measurement": "1 µM GBD00276 (ibrutinib), % inhibition", "setting": "CDK18", "result": 6.584, "unit": "%"},
      {"measurement": "1 µM GBD00276 (ibrutinib), % inhibition", "setting": "PRKD2", "result": -18.67, "unit": "%"},
      {"measurement": "1 µM GBD00276 (ibrutinib), % inhibition", "setting": "MAP3K9", "result": -1.576, "unit": "%"},
      {"measurement": "1 µM GBD00276 (ibrutinib), % inhibition", "setting": "SGK2", "result": -4.773, "unit": "%"},
      {"measurement": "1 µM GBD00276 (ibrutinib), % inhibition", "setting": "STK25/YSK1", "result": 10.23, "unit": "%"},
      {"measurement": "1 µM GBD00276 (ibrutinib), % inhibition", "setting": "TAOK3", "result": 9.158, "unit": "%"},
      {"measurement": "1 µM GBD00276 (ibrutinib), % inhibition", "setting": "CSNK1D/CK1D", "result": 12.82, "unit": "%"},
      {"measurement": "1 µM GBD00276 (ibrutinib), % inhibition", "setting": "PKN1", "result": -1.102, "unit": "%"},
      {"measurement": "1 µM GBD00276 (ibrutinib), % inhibition", "setting": "PRKG2", "result": 26.79, "unit": "%"},
      {"measurement": "1 µM GBD00276 (ibrutinib), % inhibition", "setting": "CSF1R/FMS", "result": 9.642, "unit": "%"},
      {"measurement": "1 µM GBD00276 (ibrutinib), % inhibition", "setting": "PRKCD/CPKCD", "result": -43.15, "unit": "%"},
      {"measurement": "1 µM GBD00276 (ibrutinib), % inhibition", "setting": "AURKA/AURA", "result": 11.52, "unit": "%"},
      {"measurement": "1 µM GBD00276 (ibrutinib), % inhibition", "setting": "MARK4", "result": -1.923, "unit": "%"},
      {"measurement": "1 µM GBD00276 (ibrutinib), % inhibition", "setting": "RPS6KA3/RSK2", "result": 28.78, "unit": "%"},
      {"measurement": "1 µM GBD00276 (ibrutinib), % inhibition", "setting": "TOPK", "result": -5.913, "unit": "%"},
      {"measurement": "1 µM GBD00276 (ibrutinib), % inhibition", "setting": "SGK1", "result": -3.083, "unit": "%"},
      {"measurement": "1 µM GBD00276 (ibrutinib), % inhibition", "setting": "BMP2K/BIKE", "result": 12.88, "unit": "%"},
      {"measurement": "1 µM GBD00276 (ibrutinib), % inhibition", "setting": "SGK3", "result": 7.387, "unit": "%"},
      {"measurement": "1 µM GBD00276 (ibrutinib), % inhibition", "setting": "EPHA3", "result": 12.32, "unit": "%"},
      {"measurement": "1 µM GBD00276 (ibrutinib), % inhibition", "setting": "MNK2", "result": -1.826, "unit": "%"},
      {"measurement": "1 µM GBD00276 (ibrutinib), % inhibition", "setting": "TYK2(JH1)", "result": 12.87, "unit": "%"},
      {"measurement": "1 µM GBD00276 (ibrutinib), % inhibition", "setting": "KDR", "result": 29.01, "unit": "%"},
      {"measurement": "1 µM GBD00276 (ibrutinib), % inhibition", "setting": "CAMK2A", "result": 2.188, "unit": "%"},
      {"measurement": "1 µM GBD00276 (ibrutinib), % inhibition", "setting": "CAMK2G", "result": 8.429, "unit": "%"},
      {"measurement": "1 µM GBD00276 (ibrutinib), % inhibition", "setting": "RPS6KA5/MSK1", "result": -5.427, "unit": "%"},
      {"measurement": "1 µM GBD00276 (ibrutinib), % inhibition", "setting": "PRKACG", "result": -12.39, "unit": "%"},
      {"measurement": "1 µM GBD00276 (ibrutinib), % inhibition", "setting": "IRAK1", "result": 5.215, "unit": "%"},
      {"measurement": "1 µM GBD00276 (ibrutinib), % inhibition", "setting": "RIPK2", "result": 98.43, "unit": "%"},
      {"measurement": "1 µM GBD00276 (ibrutinib), % inhibition", "setting": "MYLK/MLCK", "result": -5.288, "unit": "%"},
      {"measurement": "1 µM GBD00276 (ibrutinib), % inhibition", "setting": "CSNK1G2/CK1G2", "result": 17.59, "unit": "%"},
      {"measurement": "1 µM GBD00276 (ibrutinib), % inhibition", "setting": "LYNA", "result": 35.64, "unit": "%"},
      {"measurement": "1 µM GBD00276 (ibrutinib), % inhibition", "setting": "CAMK4", "result": 3.011, "unit": "%"},
      {"measurement": "1 µM GBD00276 (ibrutinib), % inhibition", "setting": "DYRK1A", "result": 15.66, "unit": "%"},
      {"measurement": "1 µM GBD00276 (ibrutinib), % inhibition", "setting": "HIPK1", "result": 7.799, "unit": "%"},
      {"measurement": "1 µM GBD00276 (ibrutinib), % inhibition", "setting": "MARK3", "result": 4.514, "unit": "%"}
    ]}
  ]
}
